Data on 18 compounds can be found in patent publication US20230374034A1, “NOVEL BICYCLIC COMPOUNDS” (PRISM BIOLAB CO., LTD., priority 2020, published 2023).

Each structure is given as a SMILES string.

For one assay, the system named is NICD (Notch intracellular domain) CSL-bla reporter in HeLa cells. The assay is described as follows: Notch assay (CellSensor T-REx NICD CSL-bla HeLa beta-lactamase reporter; Method 1 / Method 2). The following applies: Homo sapiens, 10 μM compound, Method 1 (10× compound prepared in assay medium, added to plated cells), read-out: inhibiton (%) at 10 μM. The class given is cell-based. The source says:
We used the CellSensor T-REx™ NICD CSL-bla HeLa cell line, which was engineered by lentiviral transduction of HeLa cells with a Notch response element driving beta-lactamase reporter gene expression (CSL-bla) along with DOX (doxycycline)-inducible NICD (Notch intracellular domain) constructs. Addition of DOX to these cells allows for regulated NICD transcription factor expression and subsequent beta-lactamase expression.
Specifically, the following protocol was used.
NOTCH ASSAY PROTOCOL (Method 2)
• 1. Add 40 nL/well of working concentration of 1000× compound to 384-well assay plate with Echo. • 2. Plate Cells: 35 μl/well of HeLa/T-REx™ NICD CSL-bla cells at 10^3 cells/well complete medium into 384-well plate. • 3. Add 5 μl 8× Doxycycline in Assay Medium to the treated wells, and 5 μl Assay Medium to the Untreated and cell free control wells. • 4. Incubate the assay plate in a humidified 37° C./5% CO2 incubator for 16-20 hours. • 5. Preparation of 6× LiveBLAzer™-FRET B/G Substrate (CCF4-AM) Mixture according to the manual and cell loading should be done in the absence of direct strong lighting. • 6. Remove assay plate from the humidified 37° C./5% CO2 incubator. Add 8 μl of 6× Substrate Mixture from Step 5 to each well. Cover the plate to protect it from light and evaporation. Incubate at room temperature for 4 hours. • 7. Reading an Assay Plate using the following filter selections:
• 8. Data analysis: Use the assay plate layout to identify the location of the Cell-free wells. These control wells are used for background subtraction. Determine the average emission from the Cell-free wells at both 460 nm (Average Blue Background) and 530 nm(Average Green Background). Subtract the Average Blue Background (data collected at 460 nm) from all of the blue emission data. Subtract the Average Green background (data collected at 530 nm) from all of the green emission data. Calculate the Blue/Green Emission Ratio for each well, by dividing the background-subtracted blue emission values by the background-subtracted green emission values.
Instead of Step 1 to Step 3, the following Step a to Step d can also be performed. The subsequent steps are the same as Method 2, after Step 4 (Method 1). • a. Plate Cells: 32 μL/well of HeLa/T-REx™ NICD CSL-bla cells at 10^3 cells/well complete medium into 384-well plate. • b. Prepare 10× compounds in assay medium. • c. Add 4 μL compounds or 1% DMSO in assay medium to the cells. • d. Add 4 μL 10×Doxycycline in Assay Medium to the treated wells, and 4 μL Assay Medium to the Untreated and cell free control wells.
The results are shown in Table 13 (Table 13-1 to Table 13-2).
For the compound `CC(C)[C@@H]1ON(C(=O)OCc2cccc3ccccc23)C2CN(C(C)C)C(=O)[C@H](Cc3ccc(O)cc3)N2C1=O` (stereo partly drawn) [Compound I-22, (3S,6S)-naphthalen-1-ylmethyl 6-(4-hydroxybenzyl)-3,8-diisopropyl-4,7-dioxohexahydropyrazino[2,1-c][1,2,4]oxadiazine-1(6H)-carboxylate], the inhibition at 10 µM worked out at 72.8%. On the same count and under the same terms, the same measure for `CCCC[C@@H]1ON(C(=O)OCc2cccc3ccccc23)C2CN(C(C)C)C(=O)[C@H](Cc3ccc(O)cc3)N2C1=O` (stereo partly drawn) [Compound I-23, (3S,6S)-naphthalen-1-ylmethyl 3-butyl-6-(4-hydroxybenzyl)-8-isopropyl-4,7-dioxohexahydropyrazino[2,1-c][1,2,4]oxadiazine-1(6H)-carboxylate]: 50.4%. Same read-out and setting: the same measure for `CC(C)C[C@@H]1ON(C(=O)OCc2cccc3ccccc23)C2CN(C(C)C)C(=O)[C@H](Cc3ccc(O)cc3)N2C1=O` (stereo partly drawn) [Compound I-24, (3S,6S)-naphthalen-1-ylmethyl 6-(4-hydroxybenzyl)-3-isobutyl-8-isopropyl-4,7-dioxohexahydropyrazino[2,1-c][1,2,4]oxadiazine-1(6H)-carboxylate]: 68.1%; for `CCCC[C@H]1C(=O)N(CCC(N)=O)CC2N(C(=O)OCc3cccc4ccccc34)O[C@@H](Cc3ccccc3)C(=O)N21` (stereo partly drawn) [Compound I-25, (3S,6S)-naphthalen-1-ylmethyl 8-(3-amino-3-oxopropyl)-3-benzyl-6-butyl-4,7-dioxohexahydropyrazino[2,1-c][1,2,4]oxadiazine-1(6H)-carboxylate]: 70.3%. Same read-out and setting: the same measure for `CCCC[C@H]1C(=O)N(CC2CCCCC2)CC2N(C(=O)OCc3cccc4ccccc34)O[C@@H](CC(N)=O)C(=O)N21` (stereo partly drawn) [Compound I-26, (3S,6S)-naphthalen-1-ylmethyl 3-(2-amino-2-oxoethyl)-6-butyl-8-(cyclohexylmethyl)-4,7-dioxohexahydropyrazino[2,1-c][1,2,4]oxadiazine-1(6H)-carboxylate]: 68.4%; for `CC(C)CCN1CC2N(C(=O)OCc3cccc4ccccc34)O[C@@H](CC(N)=O)C(=O)N2[C@@H](CC2CCCCC2)C1=O` (stereo partly drawn) [Compound I-27, (3S,6S)-naphthalen-1-ylmethyl 3-(2-amino-2-oxoethyl)-6-(cyclohexylmethyl)-8-isopentyl-4,7-dioxohexahydropyrazino[2,1-c][1,2,4]oxadiazine-1(6H)-carboxylate]: 62.9%.

Staying with this assay, now noted: Homo sapiens, 10 μM compound, Method 2 (40 nL of 1000× compound added to plate with Echo), read-out: inhibiton (%) at 10 μM.
As to `CCCCCN1CC2N(C(=O)OCC3CCCCC3)O[C@H](Cc3ccccc3)C(=O)N2[C@@H](CCCCN)C1=O` (stereo partly drawn) [Compound I-28, (3R,6S)-cyclohexylmethyl 6-(4-aminobutyl)-3-benzyl-4,7-dioxo-8-pentylhexahydropyrazino [2,1-c][1,2,4]oxadiazine-1(6H)-carboxylate], the inhibition at 10 µM stood at 99.7%.

In the case of `NCCCC[C@H]1C(=O)N(CC2CCCCC2)CC2N(C(=O)OCC3CCCCC3)O[C@H](Cc3ccccc3)C(=O)N21` (stereo partly drawn) [Compound I-29, (3R,6S)-cyclohexylmethyl 6-(4-aminobutyl)-3-benzyl-8-(cyclohexylmethyl)-4,7-dioxohexahydropyrazino[2,1-c][1,2,4]oxadiazine-1(6H)-carboxylate], the inhibition at 10 µM is 101%. On the same count and under the same terms, the same measure for `CC(C)C[C@H]1ON(C(=O)OCC2CCCCC2)C2CN(CCc3ccccc3)C(=O)[C@H](CCCCN)N2C1=O` (stereo partly drawn) [Compound I-30, (3R,6S)-cyclohexylmethyl 6-(4-aminobutyl)-3-isobutyl-4,7-dioxo-8-phenethylhexahydropyrazino [2,1-c][1,2,4]oxadiazine-1(6H)-carboxylate]: 117%; for `CC[C@H](C)CN1CC2N(C(=O)OCC3CCCCC3)O[C@H](CC(C)C)C(=O)N2[C@@H](CCCCN)C1=O` (stereo partly drawn) [Compound I-31, (3R,6S)-cyclohexylmethyl 6-(4-aminobutyl)-3-isobutyl-8-((S)-2-methylbutyl)-4,7-dioxohexahydropyrazino[2,1-c][1,2,4]oxadiazine-1(6H)-carboxylate]: 67.1%; for `O=C1[C@H](CO)N2C(=O)[C@@H](Cc3ccccc3)ON(C(=O)OCC3CCCCC3)C2CN1CCc1ccc(O)cc1` (stereo partly drawn) [Compound I-32, (3R,6S)-cyclohexylmethyl 3-benzyl-6-(hydroxymethyl)-8-(4-hydroxyphenethyl)-4,7-dioxohexahydropyrazino[2,1-c][1,2,4]oxadiazine-1(6H)-carboxylate]: 59.8%. For the compound `CC[C@H](C)OC(=O)N1O[C@H](Cc2ccccc2)C(=O)N2C1CN(CCc1cccc3ccccc13)C(=O)[C@@H]2CCCCN` (stereo partly drawn) [Compound I-33, (3R,6S)-(S)-sec-butyl 6-(4-aminobutyl)-3-benzyl-8-(2-(naphthalen-1-yl)ethyl)-4,7-dioxohexahydropyrazino[2,1-c][1,2,4]oxadiazine-1(6H)-carboxylate], the inhibition at 10 µM stood at 59.6%. As to `CCCCCN1CC2N(C(=O)OCC(C)C)O[C@H](CC3CCCCC3)C(=O)N2[C@@H](CCCCN)C1=O` (stereo partly drawn) [Compound I-34, (3R,6S)-isobutyl 6-(4-aminobutyl)-3-(cyclohexylmethyl)-4,7-dioxo-8-pentylhexahydropyrazino [2,1-c][1,2,4]oxadiazine-1(6H)-carboxylate], the inhibition at 10 µM came to 120%. Regarding `CCCCOC(=O)N1O[C@H](CC2CCCCC2)C(=O)N2C1CN(CCC(C)C)C(=O)[C@@H]2CCCCN` (stereo partly drawn) [Compound I-35, (3R,6S)-butyl 6-(4-aminobutyl)-3-(cyclohexylmethyl)-8-isopentyl-4,7-dioxohexahydropyrazino[2,1-c][1,2,4]oxadiazine-1(6H)-carboxylate], the inhibition at 10 µM is 54%. With `COC(=O)N1O[C@H](CC2CCCCC2)C(=O)N2C1CN(CC1CCCCC1)C(=O)[C@@H]2CCCCN` (stereo partly drawn) [Compound I-36, (3R,6S)-methyl 6-(4-aminobutyl)-3,8-bis(cyclohexylmethyl)-4,7-dioxohexahydropyrazino[2,1-c][1,2,4]oxadiazine-1(6H)-carboxylate], the inhibition at 10 µM amounted to 52.2%. On the same count and under the same terms, the same measure for `CC(C)OC(=O)N1O[C@H](CC2CCCCC2)C(=O)N2C1CN(CCc1ccccc1)C(=O)[C@@H]2CCCCN` (stereo partly drawn) [Compound I-37, (3R,6S)-isopropyl 6-(4-aminobutyl)-3-(cyclohexylmethyl)-4,7-dioxo-8-phenethylhexahydropyrazino [2,1-c][1,2,4]oxadiazine-1(6H)-carboxylate]: 87.3%; for `CC[C@H](C)OC(=O)N1O[C@H](CC2CCCCC2)C(=O)N2C1CN(CCc1ccccc1)C(=O)[C@@H]2CCCCN` (stereo partly drawn) [Compound I-38, (3R,6S)-(S)-sec-butyl 6-(4-aminobutyl)-3-(cyclohexylmethyl)-4,7-dioxo-8-phenethylhexahydropyrazino [2,1-c][1,2,4]oxadiazine-1(6H)-carboxylate]: 97.3%; for `NC(=O)C[C@H]1C(=O)N(CCc2ccccc2)CC2N(C(=O)OCC3CCCCC3)O[C@H](Cc3ccc(O)cc3)C(=O)N21` (stereo partly drawn) [Compound I-39, (3R,6S)-cyclohexylmethyl 6-(2-amino-2-oxoethyl)-3-(4-hydroxybenzyl)-4,7-dioxo-8-phenethylhexahydropyrazino [2,1-c][1,2,4]oxadiazine-1(6H)-carboxylate]: 52.1%.
